Like-named read-outs stand apart in the source and are kept apart here.
Test system: tumor cell suspension (glioma samples)
[1] = FIG. 5, example B, tumor located near normal brain tissue in phylogenetic tree, 8 hours incubation, about 1/10 of highest blood concentration
[2] = FIG. 5, example A, tumor located near normal brain tissue in phylogenetic tree, 8 hours incubation, about 1/10 of highest blood concentration

Method: These drugs were classified into five following categories by pharmacological mechanism. • Alkylating agents: • 4-hydroperoxy-cyclophosphamide (CPM)(1 μg/ml), 4-hydroperoxy-ifosfamide (IFOS) (I μg/ml), melphalan (MPL) (0.5 μg/ml), carboquone (CQ) (0.1 μg/ml), nimustine (ACNU) (2 μg/ml), ranimustine (MCNU) (2 μg/ml), cisplatinum (CDDP) (0.5 μg/ml) and carboplatin (JM-8) (4 μg/ml) • Antimetabolites: • Methotrexate (MTX) (3 μg/ml), 5-fluoro uracil (5-FU) (10 μg/ml), thioinosine (6-MRP) (3μg/ml) and cytosine arabinoside (CA) (4 μg/ml) • Antibiotics: • Mitomycin C (MMC) (0.2 μg/ml), bleomycin (BLM) (1 μg/ml), peplomycin (PEP) (0.5 μg/ml), chromomycin A3 (TM) (0.01 μg/ml) and neocarsinostatin (NCS) (0.15 μg/ml) • Topoisomerase inhibitors: • Actinomycin D (ACD) (0.01 μg/ml), aclarubicin (ACR) (0.6 μg/ml), adriamycin (ADM) (0.3 μg/ml), daunomycin (DM) (0.6 μg/ml), pirarubicin (THP) (0.3 μg/ml), epirubicin (4′-EPI) (0.4 μg/ml), mitoxantrone (MIT) (0.06 μg/ml), etoposide (VP-16) (3 μg/ml) and camptothecine (CPT-11) (3 μg/ml) • Microtubule Inhibitors: • Vincristine (VCR) (0.1 μg/ml), vinblastin (VLB) (0.1 μg/ml), vindesin (VDS) (0.1 μg/ml) and paclitaxel (TAX) (0.6 μg/ml)
The in vitro concentrations of these drugs were set to about 1/10 of the highest blood concentration when administered at a dose clinically recommended, and differences in the reaction by dose were evaluated for 10 selected drugs (CPM, ACNU, CDDP, PEP, ADM, VP-16, CA, TAX, VCR). The cultured samples of these were mixed in a phosphate buffered saline (pH 7.2)/0.1% Triton X-100/0.1 mg/ml RNase/0.01% sodium azide for 15 minutes and subsequently mixed with 50 g/ml of propidium iodide (Sigma,St.Louis, Mo.) for 5 minutes. The isolated nuclei were analyzed with flow cytometer (FACScan:Becton Dickinson, Mountain view, Calif.). The efficacy of a drug was judged by shifting the nucleus of apoptosis to a low diploid (sub-G1) region and comparing reverse decrease of the peak of the thus incorporated diploid with decrease of untreated control cells. […] Decomposition and condensation of chromatin were judged as a marker of apoptosis and quantitatively evaluated by Fisher's exact test.

SMILES	efficacy of drug in drug sensitivity test [1]	efficacy of drug in drug sensitivity test [2]	efficacy of drug in drug sensitivity test (FIG. 5, example C, tumor located slightly away from normal brain tissue in phylogenetic tree)	drug sensitivity of tumors having sensitivity to ACNU (tumors having sensitivity to ACNU)
CC(=O)O[C@H]1C(=O)[C@@]2(C)[C@H]([C@H](OC(=O)c3ccccc3)[C@]3(O)C[C@H](OC(=O)[C@H](O)[C@@H](NC(=O)c4ccccc4)c4ccccc4)C(C)=C1C3(C)C)[C@]1(OC(C)=O)CO[C@@H]1C[C@@H]2O [TAX, paclitaxel]	effective	–	–	–
Cc1ncc(CNC(=O)N(CCCl)N=O)c(N)n1 [ACNU, nimustine]	effective	effective	–	–
CC[C@]1(O)C[C@H]2CN(CCc3c([nH]c4ccccc34)[C@@](C(=O)OC)(c3cc4c(cc3OC)N(C=O)[C@H]3[C@@](O)(C(=O)OC)[C@H](OC(C)=O)[C@]5(CC)C=CCN6CC[C@]43[C@@H]65)C2)C1 [VCR, vincristine]	–	–	effective	generally resistant
O=P1(N(CCCl)CCCl)NC(OO)CCO1 (stereo not shown) [CPM]	effective	effective	–	–
